37 compounds from US20170273922A1, “UREA AND BIS-UREA BASED COMPOUNDS AND ANALOGUES THEREOF USEFUL IN THE TREATMENT OF ANDROGEN RECEPTOR MEDIATED DISEASES OR DISORDERS” (THE ROYAL INSTITUTION FOR THE ADVACEMENT OF LEARNING/MCGILL …, priority 2014, published 2017) can be followed below.

For orientation: IC50 means the concentration that gives 50% inhibition. A low value points to greater potency.

Common to all, as to assay type: cell-based
Data set [1] is described as follows: MTT assay (cytotoxicity), 22Rv1 cells. The settings on record: human, 22Rv1 cells, 72 h. On the procedure: (§1) MTT assays: LNCaP, 22Rv1, Du145, H1975, A549, MB231 and MCF-7 cells are maintained in RPMI 1640 supplemented with 10% FBS. Cells were seeded at a density of 6-7×10^3 cells per well in 96-well plates. After overnight incubation, cells in fresh RPMI 1640 supplemented with 10% FBS were exposed to DMSO vehicle control or test compounds at designated concentrations for 72 h. Viable cells were evaluated by MTT assays. Experiments were performed in triplicate and repeated at least twice.
(Tetrazolium assays rely on reduction of a dye to a coloured formazan, in cell work by metabolically active cells.)

A short description of data set [2]: MTT assay (cytotoxicity), DU145 cells. To be noted: human, DU145 cells. The protocol:
as §1

Data set [3] in a line: MTT assay (cytotoxicity), LNCaP cells. To be noted: human, LNCaP cells, 72 h. On the procedure:
as §1

Another data set relates to 22Rv1 cells. Nature of the data set: MTT assay (cytotoxicity), 22Rv1 cells. The settings on record: 72 h. On the procedure: as §1
The test system of another data set is DU145 cells. Nature of the data set: MTT assay (cytotoxicity), DU145 cells. To be noted: 72 h. The protocol:
as §1

For the next data set, the system named is LNCaP cells. The data set is described as follows: MTT assay (cytotoxicity), LNCaP cells. The settings on record: 72 h. On the procedure: as §1

As to `O=C(N/C=C/c1cccc(C(F)(F)F)c1)Nc1ccc2c(c1)OCO2` [Compound 418], the 50% inhibitory concentration (IC50) at 72 h in data set [1] (Table 2.3), in data set [2] (Table 2.3) and in data set [3] (Table 2.3) was greater than 20 µM in each case.
As for `O=C(N/C=C/c1cccs1)Nc1ccc([N+](=O)[O-])c(C(F)(F)F)c1` [Compound 419], the IC50 at 72 h in data set [1] (Table 2.4) was determined as 4.1 µM; in data set [2] (Table 2.4), 6.9 µM; in data set [3] (Table 2.4), 3.2 µM.
For the compound `O=C(N/C=C/c1cccs1)Nc1cccc(C(F)(F)F)c1` [Compound 420], the IC50 at 72 h was 12.3 µM in data set [1] (Table 2.4), 12.3 µM in data set [2] (Table 2.4) and 6.4 µM in data set [3] (Table 2.4).
`N#Cc1ccc(NC(=O)N/C=C/c2cccs2)cc1` [Compound 424]: the IC50 at 72 h worked out at 16.7 µM in data set [1] (Table 2.4), 14.4 µM in data set [2] (Table 2.4) and 5 µM in data set [3] (Table 2.4).
Turning to `O=C(N/C=C/c1ccccc1C(F)(F)F)Nc1ccc2c(c1)OCO2` [Compound 427], the IC50 at 72 h in data set [2] (Table 2.3) is 19.2 µM; in data set [3] (Table 2.3), 9.5 µM.
On to `COc1cccc(/C=C/NC(=O)Nc2ccc3c(c2)OCO3)c1` [Compound 431], for which the IC50 at 72 h was greater than 20 µM in data set [1] (Table 2.3), greater than 20 µM in data set [2] (Table 2.3) and 17.3 µM in data set [3] (Table 2.3).
In the case of `O=C(N/C=C/c1ccc(C(F)(F)F)cc1)Nc1ccc2c(c1)OCO2` [Compound 432], the IC50 at 72 h in data set [1] (Table 2.3), in data set [2] (Table 2.3) and in data set [3] (Table 2.3) was greater than 20 µM throughout.
On to `O=C(N/C=C/c1ccco1)Nc1ccc([N+](=O)[O-])c(C(F)(F)F)c1` [Compound 434], for which the IC50 at 72 h in data set [1] (Table 2.4) is 5.6 µM; in data set [2] (Table 2.4), 7.8 µM; in data set [3] (Table 2.4), 2 µM.
`O=C(N/C=C/c1cccc(C(F)(F)F)c1)Nc1cccc(NC(=O)N/C=C/c2cccc(C(F)(F)F)c2)c1` [Compound 440]: the values for the IC50 at 72 h in data set [1] (Table 5.1), in data set [2] (Table 5.1) and in data set [3] (Table 5.1) were 4.9 µM, 5.1 µM and 1.7 µM, respectively.
In the case of `O=C(N/C=C/c1ccc2c(c1)OCO2)Nc1ccc([N+](=O)[O-])c(C(F)(F)F)c1` [Compound 444], the figures for the IC50 at 72 h in data set [1] (Table 2.4), in data set [2] (Table 2.4) and in data set [3] (Table 2.4) were 17.5 µM, 14 µM and 14.6 µM, respectively.
For the compound `O=C(NCCc1cccc(C(F)(F)F)c1)Nc1ccc([N+](=O)[O-])c(C(F)(F)F)c1` [Compound 448], the values for the IC50 at 72 h in data set [1] (Table 2.4), in data set [2] (Table 2.4) and in data set [3] (Table 2.4) were 4.5 µM, 7.5 µM and 1.8 µM, respectively.
For the compound `CC(C)(C)OC(=O)n1cc(/C=C/NC(=O)Nc2ccc([N+](=O)[O-])c(C(F)(F)F)c2)c2ccccc21` [Compound 450], the IC50 at 72 h in data set [1] (Table 2.4) was 4 µM; in data set [2] (Table 2.4) it was 4.9 µM; in data set [3] (Table 2.4) it was 1.8 µM.
As to `O=C(N/C=C/c1cccc(C(F)(F)F)c1)Nc1ccccc1NC(=O)N/C=C/c1cccc(C(F)(F)F)c1` [Compound 451], the IC50 at 72 h in data set [1] (Table 5.1) was found to be 4.4 µM; in data set [2] (Table 5.1), 5.4 µM; in data set [3] (Table 5.1), 2.4 µM.
In the case of `CC(C)(C)OC(=O)n1cc(/C=C/NC(=O)Nc2ccc(NC(=O)N/C=C/c3cn(C(=O)OC(C)(C)C)c4ccccc34)cc2)c2ccccc21` [Compound 452], the IC50 at 72 h in data set [1] (Table 5.1) was greater than 20 µM; in data set [2] (Table 5.1), 3.4 µM; in data set [3] (Table 5.1) it was greater than 20 µM.
In the case of `CC(C)(C)OC(=O)n1cnc(/C=C/NC(=O)Nc2ccc([N+](=O)[O-])c(C(F)(F)F)c2)c1` [Compound 453], the IC50 at 72 h is greater than 20 µM in data set [1] (Table 2.4), greater than 20 µM in data set [2] (Table 2.4) and 4 µM in data set [3] (Table 2.4).
Turning to `O=C(N/C=C/c1cccc(C(F)(F)F)c1)NCCc1cccc(C(F)(F)F)c1` [Compound 459], the IC50 at 72 h in data set [2] (Table 2.4) was greater than 10 µM; in data set [3] (Table 2.4), 7.1 µM.
As for `O=C(N/C=C/c1ccc([N+](=O)[O-])c(C(F)(F)F)c1)NCc1cccc(C(F)(F)F)c1` [Compound 461], the IC50 at 72 h was found to be 3.4 µM in data set [1] (Table 2.4), 3.4 µM in data set [2] (Table 2.4) and 2.4 µM in data set [3] (Table 2.4).
As for `N#Cc1ccc(NC(=O)Nc2cc(C(F)(F)F)cc(C(F)(F)F)c2)cc1Cl` [Compound 500], the concentration for half-maximal inhibition (IC50) with 22Rv1 cells (22Rv1 cells, Table 4.2) is 0.4 µM; in the data set on DU145 cells (DU145 cells, Table 4.2) it was 1.3 µM; in the data set with LNCaP cells (LNCaP cells, Table 4.2), 0.2 µM.
The like results for `N#Cc1ccc(NC(=O)Nc2ccc(C(F)(F)F)cc2)cc1Cl` [Compound 502] were, in that order, 2.2 µM, 4.1 µM and 1.2 µM.
For `O=C(N/C=C/c1cc(C(F)(F)F)cc(C(F)(F)F)c1)Nc1cccnc1` [Compound 503], the IC50 turned out to be 11.3 µM with 22Rv1 cells (Table 2.1), 9.5 µM in the data set with DU145 cells (Table 2.1) and 7.5 µM in the data set with LNCaP cells (Table 2.1).
Consider `N#Cc1ccc(NC(=O)Nc2ccc(C(F)(F)F)cc2)cc1C(F)(F)F` [Compound 509], for which the IC50 in the data set with 22Rv1 cells (22Rv1 cells, Table 4.2) was found to be 1.6 µM; in the data set on DU145 cells (DU145 cells, Table 4.2) it was 5.4 µM; with LNCaP cells (LNCaP cells, Table 4.2), 0.7 µM.
As for `N#Cc1ccc(NC(=O)N/C=C/c2cccc(C(F)(F)F)c2)cn1` [Compound 510], the IC50 with 22Rv1 cells (Table 2.1) was determined as 6.6 µM; in the data set on DU145 cells (Table 2.1), 5.7 µM; with LNCaP cells (Table 2.1), 3.3 µM.
Regarding `O=C(N/C=C/c1cc(C(F)(F)F)cc(C(F)(F)F)c1)Nc1ccc2ncccc2c1` [Compound 515], the IC50 at 72 h in data set [1] (Table 2.3), in data set [2] (Table 2.3) and in data set [3] (Table 2.3) was greater than 10 µM in each case.
On to `O=C(N/C=C/c1cc(C(F)(F)F)ccc1C(F)(F)F)Nc1ccc2ncccc2c1` [Compound 517], for which the IC50 at 72 h was greater than 10 µM in data set [1] (Table 2.3), 6.2 µM in data set [2] (Table 2.3) and 3.4 µM in data set [3] (Table 2.3).
With `O=C(N/C=C/c1cccc(C(F)(F)F)c1)Nc1ccc2[nH]ccc2c1` [Compound 520], the values for the IC50 at 72 h in data set [1] (Table 2.3), in data set [2] (Table 2.3) and in data set [3] (Table 2.3) were greater than 10 µM, greater than 10 µM and 6.5 µM, respectively.
As to `O=C(Nc1cccc(C(F)(F)F)c1)Nc1ccc2[nH]ccc2c1` [Compound 522], the IC50 at 72 h in data set [1] (Table 4.1), in data set [2] (Table 4.1) and in data set [3] (Table 4.1) was greater than 10 µM each time.
With `O=C(N/C=C/c1cc(C(F)(F)F)cc(C(F)(F)F)c1)Nc1cnc2ccccc2c1` [Compound 523], the IC50 at 72 h in data set [1] (Table 2.3) was 8.4 µM; in data set [2] (Table 2.3), 10 µM; in data set [3] (Table 2.3), 8 µM.
Take `O=C(N/C=C/c1cc(C(F)(F)F)ccc1C(F)(F)F)Nc1cnc2ccccc2c1` [Compound 524]: the IC50 at 72 h in data set [1] (Table 2.3) came out at 8.4 µM; in data set [2] (Table 2.3), 7.4 µM; in data set [3] (Table 2.3), 3.4 µM.
Take `O=C(N/C=C/c1cccc(C(F)(F)F)c1)Nc1cnc2ccccc2c1` [Compound 525]: the IC50 at 72 h in data set [1] (Table 2.3), in data set [2] (Table 2.3) and in data set [3] (Table 2.3) was greater than 10 µM each time.
For `O=C(N/C=C/c1cc(C(F)(F)F)cc(C(F)(F)F)c1)Nc1ncccc1Br` [Compound 527], the IC50 with 22Rv1 cells (Table 2.1) is 7.6 µM; with DU145 cells (Table 2.1), 6.8 µM; with LNCaP cells (Table 2.1), 5.3 µM.
For the compound `O=C(Nc1cc(C(F)(F)F)cc(C(F)(F)F)c1)Nc1ccc2[nH]ccc2c1` [Compound 530], the IC50 at 72 h in data set [1] (Table 4.1) came out at 7.1 µM; in data set [2] (Table 4.1) it was 8.3 µM; in data set [3] (Table 4.1), 6 µM.
Regarding `O=C(N/C=C/c1cc(C(F)(F)F)cc(C(F)(F)F)c1)Nc1ccn(C(=O)N/C=C/c2cc(C(F)(F)F)cc(C(F)(F)F)c2)c(=O)n1` [Compound 532], the IC50 at 72 h in data set [1] (Table 5.1) turned out to be 4.3 µM; in data set [2] (Table 5.1), 5.1 µM; in data set [3] (Table 5.1), 2.4 µM.
Take `O=C(N/C=C/c1cc(C(F)(F)F)cc(C(F)(F)F)c1)Nc1cnccc1Cl` [Compound 533]: the IC50 with 22Rv1 cells (Table 2.1) was 10.9 µM; in the data set on DU145 cells (Table 2.1) it was 6.5 µM; in the data set on LNCaP cells (Table 2.1), 2 µM.
For the compound `CC/C=C(\C)CN(C(=O)N/C=C/c1cc(C(F)(F)F)cc(C(F)(F)F)c1)c1ccc(C#N)nc1` [Compound 534], the IC50 at 72 h in data set [1] (Table 2.5) amounted to 7.3 µM; in data set [2] (Table 2.5) it was 7.1 µM; in data set [3] (Table 2.5), 6 µM.
With `O=C(N/C=C/c1cc(C(F)(F)F)cc(C(F)(F)F)c1)Nc1cncc(F)c1` [Compound 535], the results for the IC50 in the data set on 22Rv1 cells (Table 2.1), in the data set on DU145 cells (Table 2.1) and in the data set with LNCaP cells (Table 2.1) were 3.1 µM, 3 µM and 2.6 µM, respectively.
Consider `O=C(Nc1cccc(C(F)(F)F)c1)Nc1ccncn1` [Compound 574], for which the IC50 at 72 h is greater than 20 µM in data set [1] (Table 4.1), greater than 20 µM in data set [2] (Table 4.1) and 13.8 µM in data set [3] (Table 4.1).
Regarding `O=C(Nc1cc(C(F)(F)F)cc(C(F)(F)F)c1)Nc1ccncn1` [Compound 578], the half-maximal inhibitory concentration (IC50) at 72 h is 5.5 µM in data set [1] (Table 4.1), 2.4 µM in data set [2] (Table 4.1) and 1.3 µM in data set [3] (Table 4.1).
